Reference: PubChem BioAssay (NCI)
Where “and” joins values, the source holds several entries; their conditions need not be identical. Equal entries are not always repeated.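 Growth conditions: 96-well plates. Treatment: test compound, 48 hours, 5 concentrations. Analysis: linear interpolation between bracketing concentrations; unreached endpoints set to highest concentration. GI50 = concentration required for 50% inhibition of growth. TGI marks complete inhibition of growth.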

Legend:
Test in all cases: inhibition of tumour cell growth, NCI panel, 48 h
ACHN renal = tested on: ACHN renal
EKVX NSCLC = tested on: EKVX NSCLC
HCT-116 colon = tested on: HCT-116 colon
HCT-15 colon = tested on: HCT-15 colon
LOX IMVI melanoma = tested on: LOX IMVI melanoma
MDA-MB-435 = tested on: MDA-MB-435
NCI/ADR-RES ovarian = tested on: NCI/ADR-RES ovarian
PC-3 prostate = tested on: PC-3 prostate
SR leukemia = tested on: SR leukemia
UACC-62 melanoma = tested on: UACC-62 melanoma

Row | SMILES | TGI (ACHN renal) | TGI (EKVX NSCLC) | TGI (HCT-116 colon) | TGI (HCT-15 colon) | TGI (LOX IMVI melanoma) | TGI (MDA-MB-435) | TGI (NCI/ADR-RES ovarian) | TGI (PC-3 prostate) | TGI (SR leukemia) | TGI (UACC-62 melanoma) | GI50 (ACHN renal) | GI50 (EKVX NSCLC) | GI50 (HCT-116 colon) | GI50 (HCT-15 colon) | GI50 (LOX IMVI melanoma) | GI50 (MDA-MB-435) | GI50 (NCI/ADR-RES ovarian) | GI50 (PC-3 prostate) | GI50 (SR leukemia) | GI50 (UACC-62 melanoma) [µM]
1 | CC1=CC(=O)CC(C)(C)C1(O)/C=C/C(C)=C/C(=O)O (stereo not drawn) | > 100 µM | > 100 µM | > 100 µM | > 100 µM | > 100 µM | > 100 µM | > 100 µM | > 100 µM | > 100 µM | > 100 µM |  |  |  |  |  |  |  |  |  | 
2 | C/C1=C/C(=O)O[C@@H]2C[C@@H](CC[C@H](C)/C=C\C=C\CC1)O[C@@](O)([C@@H]1CSC(=O)N1CO)C2 | > 100 µM | > 100 µM | 20 µM | > 91.4 µM | 11.1 µM | > 88.6 µM | 46.1 µM | 3.13 µM | 16 µM | 26.2 µM | 0.0403 µM | 0.144 µM | 0.194 µM | 0.0689 µM | 0.0228 µM | 0.29 µM | 1.2 µM | 0.0367 µM | 0.154 µM | 0.0863
3 | Sc1ccc2ccccc2c1CNCc1ccccc1 | 57.9 µM | 78.3 µM | 33.4 µM | 88.6 µM | 18.6 µM | 29.9 µM | 98.1 µM | > 100 µM | 15.4 µM | 28.6 µM |  |  |  |  |  |  |  |  |  | 
4 | C[C@H](N)C(=O)N[C@@H]1[C@H]2C(=C(O)C[C@@H](O)[C@@H]2O)C(=O)O[C@]1(C)C(Cl)Cl | 5.21 µM and 1.58 µM | 4.66 µM and 2.23 µM | 1.85 µM and 1.33 µM | 10.1 µM and 5.57 µM | 0.454 µM and 0.675 µM | 3.42 µM and 0.86 µM | 29.1 µM | 3.89 µM and 1.37 µM | 7.55 µM | 1.66 µM and 1.1 µM | 0.309 µM | 0.472 µM | 0.205 µM | 0.894 µM | 0.106 µM | 0.309 µM |  |  | 0.255 µM | 0.27
5 | NC(=O)/C(=C\c1ccncc1)c1cccc2ccccc12 | > 100 µM | > 100 µM | > 100 µM | > 100 µM | > 100 µM | > 100 µM | > 100 µM | > 100 µM | > 100 µM | > 100 µM |  |  |  |  |  |  |  |  |  | 
6 | Fc1ccc(-c2nn3c(CNc4ccccc4)nnc3s2)cc1 | > 100 µM | > 100 µM | > 100 µM | > 100 µM | 96.7 µM | 51.6 µM | 53.6 µM | > 100 µM | > 100 µM | 53.7 µM | 66.8 µM | 27.8 µM | 26.5 µM | 45 µM | 29.4 µM | 18.7 µM | 13.6 µM | 31 µM | > 100 µM | 18.4
7 | CO/[N+]([O-])=C\C(=O)N/C=C/C(=O)O | > 100 µM | > 100 µM | > 100 µM | > 100 µM | > 100 µM | > 100 µM | > 100 µM | > 100 µM | > 100 µM | > 100 µM |  |  |  |  |  |  |  |  |  | 
8 | CN1CCC(CNc2ccc3ncc(-c4cccc(OC(F)(F)F)c4)n3n2)CC1 | 6.05 µM and > 10 µM | 14.5 µM and > 10 µM | 3.94 µM and 4.33 µM | 4.78 µM and > 10 µM | 3.2 µM and 2.85 µM | 2.96 µM and 3.4 µM | 10.5 µM and > 10 µM | 7.13 µM and > 10 µM | 5.24 µM and 4.46 µM | 3.66 µM | 2.14 µM and 3.05 µM | 3.45 µM and 9.78 µM | 1.83 µM and 1.7 µM | 2 µM and 2.45 µM | 1.56 µM and 1.47 µM | 1.42 µM and 1.54 µM | 2.84 µM and 5.26 µM | 1.67 µM and 2.41 µM | 1.9 µM and 1.7 µM | 1.76
9 | C[C@@H](N)C1CCC(C(=O)Nc2ccncc2)CC1 (stereo partly drawn) | > 100 µM | > 100 µM | > 100 µM | > 100 µM | > 100 µM | > 100 µM | > 100 µM | > 100 µM | > 100 µM | > 100 µM | > 100 µM | 15 µM | > 100 µM | > 100 µM | > 100 µM | > 100 µM | > 100 µM | > 100 µM | 36.4 µM | > 100
10 | CCCOc1ccc(-c2nc(-c3ccc(N=Cc4ccc(N(CCOS(C)(=O)=O)CCOS(C)(=O)=O)cc4C)cc3)cs2)cc1 | 18.7 µM | 56.9 µM | > 85.2 µM | > 72.2 µM | 66.8 µM | > 100 µM | > 84.6 µM | 77.9 µM | 57 µM | > 69.6 µM |  |  |  |  |  |  |  |  |  | 
11 | COc1c2ccoc2cc2oc(=O)ccc12 | > 100 µM | > 100 µM | > 100 µM | > 100 µM | > 100 µM | > 100 µM | > 100 µM | > 100 µM | > 100 µM | > 100 µM |  |  |  |  |  |  |  |  |  | 
12 | CN[C@@H](C)C(=O)N[C@H]1CN(C(=O)CC(C)C)CC[C@H]2CC[C@@H](C(=O)NC(c3ccccc3)c3ccccc3)N2C1=O | > 100 µM | > 100 µM | > 100 µM | > 100 µM | > 100 µM | > 100 µM | > 100 µM | > 100 µM | > 100 µM | > 100 µM | > 100 µM | > 100 µM | > 100 µM | > 100 µM | > 100 µM | > 100 µM | > 100 µM | > 100 µM | > 78 µM | > 100
